22 molecules from US20200270225A1, “Chiral Diacylhydrazine Ligands for Modulating the Expression of Exogenous Genes via an Ecdysone Receptor Complex” (Intrexon Corporation, priority 2007, published 2020) can be followed below.

Series [1] addresses wild-type Choristoneura fumiferana EcR (D, E and F domains) (Choristoneura fumiferana, UniProt O77240). The class given is cell-based. Particulars: WT-CtEcR, 3T3 Cells; for RMFI (relative maximum fold induction): relative to GS-E ligand. An outline of the steps:
(§1)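 NIH3T3 cells were transiently co-transfected with GAL4-DBD fused to CfEcR DEF domains (wild-type or V390I/Y410E/E274V), VP16-AD fused to chimeric human/Locusta RXR, and a GAL4-response luciferase reporter. Ligand was given at 8 doses, 0.01–33 µM, 0.33% DMSO, luciferase read at 48 h. EC50 came from fold induction over DMSO via three-parameter logistic fit; Relative Max FI was taken versus GS™-E ligand.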

Series [2] concerns the target T1, [V390I/Y410E/E274V]-CfEcR (Choristoneura fumiferana, UniProt O77240).
T1 construct: assay construct b835
The class given is cell-based. Particulars: 3T3 Cells; for RMFI (relative maximum fold induction): relative to GS-E ligand. An outline of the steps: as §1

Read-outs that look alike come from different tables or passages of the source.

`CCC[C@@H](N(NC(=O)c1ccccc1Cl)C(=O)c1cc(C)cc(C)c1)C(C)(C)C` [Example 6, (R)-3,5-Dimethyl-benzoic acid N-(1-tert-butyl-butyl)-N′-(2-chloro-benzoyl)-hydrazide]: the melting point (usually the temperature, or range, at which the solid turns liquid) lay in the range of 138 to 140 °C. Besides, in series [1] (R), the half-maximal effective concentration (EC50) (usually the concentration giving half of the maximal effect) was roughly 20 nM and the “RMFI (relative maximum fold induction)” value was found to be 0.88. Moreover, in series [2] (R), the concentration giving a half-maximal response (EC50) is 0.63 nM and the “RMFI (relative maximum fold induction)” value stood at 1.01.
In turn, `CCC[C@@H](N(NC(=O)c1cccc(OC)c1)C(=O)c1cc(C)cc(C)c1)C(C)(C)C` [Example 9, (R)-3,5-Dimethyl-benzoic acid N-(1-tert-butyl-butyl)-N′-(3-methoxy-benzoyl)-hydrazide] had a melting point of 110 to 111 °C. Moreover, in series [1] (R), the midpoint of the response, the EC50, lay at 101 nM and the “RMFI (relative maximum fold induction)” value is on record as 0.81. Further, in series [2] (R), the EC50 was 1.4 nM and the “RMFI (relative maximum fold induction)” value was 0.70.
For `CCC[C@@H](N(NC(=O)c1cc(F)cc(F)c1)C(=O)c1cc(C)cc(C)c1)C(C)(C)C` [Example 18, (R)-3,5-Dimethyl-benzoic acid N-(1-tert-butyl-butyl)-N′-(3,5-difluoro-benzoyl)-hydrazide], the melting point fell in the range of 192 to 194 °C. Moreover, in series [1] (R), a half-maximal response (EC50) required 141 nM and the “RMFI (relative maximum fold induction)” value turned out to be 0.52. For the same molecule, in series [2] (R), the EC50 is roughly 10 nM and the “RMFI (relative maximum fold induction)” value worked out at 0.79.
As to `CCC[C@@H](N(NC(=O)c1ccccc1Br)C(=O)c1cc(C)cc(C)c1)C(C)(C)C` [Example 7, (R)-3,5-Dimethyl-benzoic acid N′-(2-bromo-benzoyl)-N-(1-tert-butyl-butyl)-hydrazide], the melting point is 145 to 147 °C. In series [1] (R), the EC50 was 78.7 nM and the “RMFI (relative maximum fold induction)” value was 0.58. For the same molecule, in series [2] (R), a half-maximal effect (EC50) was put at 1.4 nM and the “RMFI (relative maximum fold induction)” value is 0.90.
`C=CC[C@H](N(NC(=O)OCc1ccccc1)C(=O)c1cc(C)cc(C)c1)C(C)(C)C` [Example 31.4, (S)—N′-(1-tert-butyl-but-3-enyl)-N′-(3,5-dimethyl-benzoyl)-hydrazine carboxylic acid benzyl ester] yielded a melting point of 150 to 151.5 °C. In series [1] (S), this molecule yielded a 50% effective concentration (EC50) greater than 10000 nM. The molecule also yielded an EC50 in series [2] (S) greater than 10000 nM.
For `CCC[C@@H](N(NC(=O)c1c(F)cccc1F)C(=O)c1cc(C)cc(C)c1)C(C)(C)C` [Example 15, (R)-3,5-Dimethyl-benzoic acid N-(1-tert-butyl-butyl)-N′-(2,6-difluoro-benzoyl)-hydrazide], the melting point fell in the range of 180 to 182 °C. For the same molecule, in series [1] (R), a half-maximal effect (EC50) was put at 66.2 nM and the “RMFI (relative maximum fold induction)” value is recorded as 0.82. In series [2] (R), the EC50 is 0.54 nM and the “RMFI (relative maximum fold induction)” value is given as 0.79.
The molecule `CCC[C@@H](N(NC(=O)c1c(Cl)cccc1Cl)C(=O)c1cc(C)cc(C)c1)C(C)(C)C` [Example 16] displayed a melting point of 185 to 187 °C. In series [1] (R), the concentration giving a half-maximal response (EC50) was roughly 300 nM and the “RMFI (relative maximum fold induction)” value was 0.53. In series [2] (R), a half-maximal response (EC50) required 51.2 nM and the “RMFI (relative maximum fold induction)” value was determined as 0.83.
The molecule `CCC[C@@H](N(NC(=O)c1cccc(OC)c1C)C(=O)c1cc(C)cc(C)c1)C(C)(C)C` [Example 29, (R)-3,5-Dimethyl-benzoic acid N-(1-tert-butyl-butyl)-N′-(3-methoxy-2-methyl-benzoyl)-hydrazide] registered a melting point of 141 to 143 °C. For the same molecule, in series [1] (R), the EC50 was roughly 1 nM and the “RMFI (relative maximum fold induction)” value turned out to be 1.08. Also, in series [2] (R), the response was half-maximal at 0.078 nM (EC50) and the “RMFI (relative maximum fold induction)” value was found to be 1.05.
As to `CCC[C@@H](N(NC(=O)c1ccc2c(c1C)OCCO2)C(=O)c1cc(C)cc(C)c1)C(C)(C)C` [Example 21, (R)-3,5-Dimethyl-benzoic acid N-(1-tert-butyl-butyl)-N′-(5-methyl-2,3-dihydro-benzo[1,4]dioxine-6-carbonyl)-hydrazide], the melting point was 70 °C. In series [1] (R), a half-maximal effect (EC50) was put at 0.304 nM and the “RMFI (relative maximum fold induction)” value came to 0.87. In series [2] (R), the EC50 is roughly 0.04 nM and the “RMFI (relative maximum fold induction)” value turned out to be 1.14.
Take `CCC[C@@H](N(NC(=O)[C@@H](C)c1ccc2cc(OC)ccc2c1)C(=O)c1cc(C)cc(C)c1)C(C)(C)C` [Example 30, (R)-3,5-Dimethyl-benzoic Acid N-(1-tert-butyl-butyl)-N′—(S)-[2-(6-methoxy-naphthalen-2-yl)-propionyl]-hydrazide]: the melting point amounted to 98 °C.
`CCC[C@@H](N(NC(=O)c1ccccc1OC)C(=O)c1cc(C)cc(C)c1)C(C)(C)C` [Example 4, (R)-3,5-Dimethyl-benzoic acid N-(1-tert-butyl-butyl)-N′-(2-meihoxy-benzoyl)-hydrazide]: the EC50 in series [1] (R) amounted to 993 nM; in series [2] (R), 99 nM. Further, the results for the “RMFI (relative maximum fold induction)” value in series [1] (R) and in series [2] (R) were 0.38 and 0.52, respectively.
For `CCC[C@H](N(NC(=O)OC(C)(C)C)C(=O)c1cc(C)cc(C)c1)C(C)(C)C` [Example 48, (S)—N′-(1-tert-Butyl-butyl)-N′-(3,5-dimethyl-benzoyl)-hydrazinecarboxylic Acid tert-butyl Ester], the concentration for a half-maximal effect (EC50) was greater than 33000 nM in series [1] (S) and 6600 nM in series [2] (S). Moreover, the “RMFI (relative maximum fold induction)” value is recorded as 0.03 in series [1] (S) and 0.20 in series [2] (S).
Turning to `CCCC(N(NC(=O)c1cccc2ccccc12)C(=O)c1cc(C)cc(C)c1)C(C)(C)C` (racemic) [rac-23], the EC50 in series [1] (rac, read-out: EC50) stood at 521 nM; in series [2] (rac, read-out: EC50), 66 nM. The “RMFI (relative maximum fold induction)” value in series [1] (rac) was determined as 0.60; in series [2] (rac), 0.84.
As for `CCCC(N(NC(=O)c1ccc2c(c1C)OCO2)C(=O)c1cc(C)cc(C)c1)C(C)(C)C` (racemic) [rac-20], the 50% effective concentration (EC50) is 99.3 nM in series [1] (rac, read-out: EC50) and 12.1 nM in series [2] (rac, read-out: EC50). Besides, the “RMFI (relative maximum fold induction)” value in series [1] (rac) worked out at 0.90; in series [2] (rac), 0.92.
For `C=CC[C@@H](N(NC(=O)OCc1ccccc1)C(=O)c1cc(C)cc(C)c1)C(C)(C)C` [Example 1.5, (R)—N′-(1-tert-butyl-but-3-enyl)-N′-(3,5-dimethyl-benzoyl)-hydrazinecarboxylic acid benzyl ester], in series [1] (R), the EC50 is greater than 10000 nM and the “RMFI (relative maximum fold induction)” value turned out to be 0.01. Further, in series [2] (R), the half-maximal effective concentration (EC50) is roughly 2000 nM and the “RMFI (relative maximum fold induction)” value came out at 0.36.
`CCCC(N(NC(=O)OC(C)(C)C)C(=O)c1cc(C)cc(C)c1)C(C)(C)C` (racemic) [rac-49, rac-N′-(1-tert-Butyl-butyl)-N′-(3,5-dimethyl-benzoyl)-hydrazinecarboxylic acid tert-butyl ester]: in series [1] (rac), the 50% effective concentration (EC50) was greater than 33000 nM and the “RMFI (relative maximum fold induction)” value is reported as 0.02. In series [2] (rac), the EC50 is roughly 4000 nM and the “RMFI (relative maximum fold induction)” value is on record as 0.50.
For `CCCC(N(NC(=O)c1c(F)cccc1F)C(=O)c1cc(C)cc(C)c1)C(C)(C)C` (racemic) [rac-15], the EC50 in series [1] (rac, read-out: EC50) is 94 nM; in series [2] (rac, read-out: EC50), roughly 1 nM. Further, the “RMFI (relative maximum fold induction)” value in series [1] (rac) was found to be 0.68; in series [2] (rac), 0.92.
As to `CCC[C@@H](N(NC(=O)c1cc(OC)c(C)c(OC)c1)C(=O)c1cc(C)cc(C)c1)C(C)(C)C` [Example 19, (R)-3,5-Dimethyl-benzoic acid N-(1-tert-butyl-butyl)-N′-(3,5-dimethoxy-4-methyl-benzoyl)-hydrazide], the EC50 in series [1] (R) is roughly 5000 nM; in series [2] (R), roughly 2000 nM. In addition, the “RMFI (relative maximum fold induction)” value stood at 0.09 in series [1] (R) and 0.37 in series [2] (R).
With `CCC[C@H](N(NC(=O)c1cccs1)C(=O)c1cc(C)cc(C)c1)C(C)(C)C` [Example 43, (S)-3,5-Dimethyl-benzoic acid N-(1-tert-butyl-butyl)-N′-(thiophene-2-carbonyl)-hydrazide], the figures for the concentration for a half-maximal effect (EC50) in series [1] (S) and in series [2] (S) were roughly 10000 nM and 1060 nM, respectively. For the same molecule, the “RMFI (relative maximum fold induction)” value in series [1] (S) worked out at 0.07; in series [2] (S), 0.52.
In the case of `CCCC(N(NC(=O)c1ccc(C)cc1)C(=O)c1cc(C)cc(C)c1)C(C)(C)C` (racemic) [rac-11], the EC50 is 89 nM in series [1] (rac, read-out: EC50) and 6.3 nM in series [2] (rac, read-out: EC50). Besides, the “RMFI (relative maximum fold induction)” value in series [1] (rac) came to 0.66; in series [2] (rac), 0.73.
With `CCC[C@@H](N(NC(=O)c1cccc(OC)c1C)C(=O)c1cc(OC)c(C)c(OC)c1)C(C)(C)C` [Example 51, (R)-3,5-Dimethoxy-4-methyl-benzoic acid N-(1-tert-butyl-butyl)-N′-(3-methoxy-2-methyl-benzoyl)-hydrazide], in series [1] (R), the EC50 is roughly 70 nM and the “RMFI (relative maximum fold induction)” value amounted to 1.00. In series [2] (R), the midpoint of the response, the EC50, lay at 0.56 nM and the “RMFI (relative maximum fold induction)” value is 0.81.
As for `CCC[C@H](C1CCCCC1)N(NC(=O)c1cccc(OC)c1CC)C(=O)c1cc(C)cc(C)c1` [Example 52, (R)-3,5-Dimethyl-benzoic Acid N-(1-cyclohexyl-butyl)-N′-(2-ethyl-3-methoxy-benzoyl)-hydrazide], in series [1] (R), the EC50 was 220 nM and the “RMFI (relative maximum fold induction)” value is 0.38. In series [2] (R), the EC50 is roughly 200 nM and the “RMFI (relative maximum fold induction)” value is recorded as 0.64.
